Consider three compounds from patent publication US9617310B2 (priority 2013, dated 2017).

Experiment [1] has as its target T1, NS3 genotype 1b protease (Hepatitis C virus genotype 1b, UniProt Q9WMX2, E1202G).
T1 construct: Purified NS3 protease domain (amino acids 1-181) of the genotype 1b and 3a virus were generated as above; K3 hexahistidine tag (N); rTEV protease cleavage site (N); made in house; host or cells: E. coli BL21AI
The experiment in a line: Ki determination, NS3 protease genotype 1b (fluorogenic depsipeptide substrate). Conditions: NS3 protease domain genotype 1b, NS4A peptide. The class given is biochemical. In short, it runs like this:
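NS3 protease domain (aa 1-181), 50 pM (1b) or 200 pM (3a), with 20 μM NS4A peptide, pre-incubated 1 h with inhibitor (100 nM–5 pM); 4 μM (1b) or 2 μM (3a) FRET depsipeptide substrate, room temperature, pH-unspecified HEPES buffer with 40% glycerol, 10% DMSO. Steady-state rates at 90–120 min (ex 340/em 490); Morrison fit gave Ki^app, corrected to Ki via substrate/Km.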

For experiment [2], the system named is genotype 1a stable HCV replicon (H77) in Huh-7-derived cells. The experiment in a line: Stable subgenomic HCV replicon, genotype 1a, Renilla luciferase. Conditions: Hepatitis C virus, stable replicon genotype 1a, 72 h, read-out: EC50 1A RLUC. The class given is cell-based. In a few lines:
(§1)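 Replicons carry hRLuc-neo, EMCV IRES and NS3-NS5B with adaptive mutations: 1a H77 P1496L/S2204I, 1b Con1 E1202G/T1280I/K1846T, 4a ED43 Q1691R/S2204I. EC50 came from non-linear regression versus DMSO and a triple-inhibitor full-inhibition control.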
On the technique in general: Replicon systems follow genome replication, usually without infectious particles.

The test system of experiment [3] is genotype 1b stable HCV replicon (Con1) in Huh-7-derived cells. Briefly: Stable subgenomic HCV replicon, genotype 1b, Renilla luciferase. The class given is cell-based. The following applies: Hepatitis C virus, stable replicon genotype 1b, 72 h, read-out: EC50 1B RLUC. In a few lines: as §1
Experiment [4] concerns genotype 3a stable HCV replicon (S52) in Huh-7-derived cells. The experiment in a line: Stable subgenomic HCV replicon, genotype 3a, Renilla luciferase. The class given is cell-based. The following applies: Hepatitis C virus, 72 h, read-out: EC50 3A RLUC.
Experiment [5] deals with genotype 4a stable HCV replicon (ED43) in Huh-7-derived cells. The experiment in a line: Stable subgenomic HCV replicon, genotype 4a, Renilla luciferase. The class given is cell-based. The following applies: Hepatitis C virus, 72 h, read-out: EC50 4A RLUC. In a few lines: as §1
The test system of experiment [6] is genotype 3a transient HCV replicon (S52) in Huh-7-derived cells. Briefly: Transient-transfected HCV replicon, genotype 3a wild type. The class given is cell-based. Conditions: Hepatitis C virus; transient-transfected replicon genotype 3a wild type, 72 h; read-out: EC50 3A WT.
In experiment [7] the test system is NS3/4a protease inhibitor resistant variant R155K in genotype 1a transient HCV replicon. The experiment in a line: Transient-transfected HCV replicon, genotype 1a R155K. The class given is cell-based. The following applies: Hepatitis C virus, 72 h, read-out: EC50 1A R155K.
Experiment [8] deals with genotype 1b wild-type transient HCV replicon in Huh-7-derived cells. Briefly: Transient-transfected HCV replicon, genotype 1b wild type. The following applies: Hepatitis C virus; transient-transfected replicon genotype 1b wild type, 72 h; read-out: EC50 1B WT. The class given is cell-based.

T1 sequence (Q9WMX2 1027-1207 E1202G, other chains not shown): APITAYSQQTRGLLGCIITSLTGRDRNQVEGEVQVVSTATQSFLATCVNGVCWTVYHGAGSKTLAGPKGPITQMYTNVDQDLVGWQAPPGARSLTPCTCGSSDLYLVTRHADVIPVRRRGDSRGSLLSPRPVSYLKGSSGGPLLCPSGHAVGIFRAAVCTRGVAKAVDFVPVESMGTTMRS

`CC(C)(C)[C@@H]1NC(=O)O[C@@H]2C[C@@H]3C[C@@H]3[C@H]2CCCCCc2nc3ccc(F)cc3nc2O[C@@H]2C[C@@H](C(=O)N[C@]3(C(=O)NS(=O)(=O)C4(C)CC4)C[C@H]3C(F)F)N(C2)C1=O` [Example 11, (1aS,2aR,6S,9S,11R,23aR,23bS)-6-tert-butyl-N-[(1R,2R)-2-(difluoromethyl)-1-{[(1-methylcyclopropyl)sulfonyl]carbamoyl}cyclopropyl]-15-fluoro-4,7-dioxo-1a,2,2a,4,5,6,7,10,11,19,20,21,22,23,23a,23b-hexadecahydro-1H,9H-8,11-methanocyclopropa[4′,5′]cyclopenta[1′,2′:18,19][1,10,3,6]dioxadiazacyclononadecino[11,12-b]quinoxaline-9-carboxamide]: in experiment [1], the Ki (commonly a measure of affinity in units of concentration, obtained from inhibition or displacement) came to 0.02 nM. Besides, the EC50 (commonly the concentration needed to bring the measured effect to its halfway point) in experiment [2] is 1.4 nM; in experiment [3], 1.3 nM; in experiment [4], 61 nM; in experiment [5] it was 1.2 nM; in experiment [6] it was 9.7 nM; in experiment [7], 1.9 nM. Also, in experiment [8], the EC50 amounted to 0.78 nM.

`CC(C)(C)[C@@H]1NC(=O)O[C@@H]2C[C@@H]3C[C@@H]3[C@H]2CCCCCc2nc3ccc(F)cc3nc2O[C@@H]2C[C@@H](C(=O)N[C@]3(C(=O)NS(=O)(=O)C4CC4)C[C@H]3C(F)F)N(C2)C1=O` [Example 12, (1aS,2aR,6S,9S,11R,23aR,23bS)-6-tert-butyl-N-[(1R,2R)-1-[(cyclopropylsulfonyl)carbamoyl]-2-(difluoromethyl)cyclopropyl]-15-fluoro-4,7-dioxo-1a,2,2a,4,5,6,7,10,11,19,20,21,22,23,23a,23b-hexadecahydro-1H,9H-8,11-methanocyclopropa[4′,5′]cyclopenta[1′,2′:18,19][1,10,3,6]dioxadiazacyclononadecino[11,12-b]quinoxaline-9-carboxamide] displayed a Ki in experiment [1] of 0.02 nM. In addition, the EC50 is 1.7 nM in experiment [2]; 1.3 nM in experiment [3]; 89 nM in experiment [4]; 1.4 nM in experiment [5]; 22 nM in experiment [6]; 1.9 nM in experiment [7]. Moreover, the EC50 in experiment [8] is 0.64 nM.

Turning to `CC(C)(C)[C@@H]1NC(=O)O[C@@H]2C[C@@H]3C[C@@H]3[C@H]2CC/C=C/C(F)(F)c2nc3ccc(C#N)cc3nc2O[C@@H]2C[C@@H](C(=O)N[C@]3(C(=O)NS(=O)(=O)C4(C)CC4)C[C@H]3C(F)F)N(C2)C1=O` [Example 13, (1aS,2aR,6S,9S,11R,20E,23aR,23bS)-6-tert-butyl-15-cyano-N-[(1R,2R)-2-(difluoromethyl)-1-{[(1-methylcyclopropyl)sulfonyl]carbamoyl}cyclopropyl]-19,19-difluoro-4,7-dioxo-1a,2,2a,4,5,6,7,10,11,19,22,23,23a,23b-tetradecahydro-1H,9H-8,11-methanocyclopropa[4′,5′]cyclopenta[1′,2′18,19][1,10,3,6]dioxadiazacyclononadecino[11,12-b]quinoxaline-9-carboxamide], the inhibition constant (Ki) in experiment [1] was 0.02 nM. In addition, the EC50 in experiment [2] came to 3.4 nM; in experiment [3], 3 nM; in experiment [4], 7.2 nM; in experiment [5], 3.6 nM; in experiment [6], 2.8 nM; in experiment [7], 2 nM. The 50% effective concentration (EC50) in experiment [8] stood at 0.99 nM.
